Measurements as given in patent US7662961B2, “N-phenylpyrazole derivatives as pesticides” (Merial Limited, priority 2004, dated 2010).

CN(C(=S)N(C)c1c([S+]([O-])C(F)(F)F)c(C#N)nn1-c1c(Cl)cc(C(F)(F)F)cc1Cl)c1c([S+]([O-])C(F)(F)F)c(C#N)nn1-c1c(Cl)cc(C(F)(F)F)cc1Cl (stereo not shown) [Compound 01-05, N,N′-Bis[3-cyano-1-(2,6-dichloro-4-trifluoromethylphenyl)-4-trifluoromethylsulfinylpyrazol-5-yl]-N,N′-dimethylthiourea]
melting point: 118 °C
